According to patent US7125958B1, “Malaria polypeptides” (priority 1997, dated 2006):

Legend:
Assay type in all cases: cell-based, Plasmodium falciparum
TM 284 rosettes = test system: TM 284 rosettes
FCR3S1 rosetting = details: compared to mock treated control cultures
TM 284 rosetting = details: for change in rosetting after treatment of whole cultures, TM 284: compared to mock treated control cultures
FCR3S1 rosettes = test system: FCR3S1 rosettes
TM180 rosettes = assay: Heparinase treatment, rosettes of strain TM180; details: not shown
R29 rosettes = assay: Heparinase treatment, rosettes of strain R29; details: not shown
[1] = test system: uninfected RBC rosette binding capacity; details: compared to non-treated RBC
[2] = test system: FCR3S1.2 infected pRBC rosettes; details: competitive rosette-reformation, enzyme 60–90 min

| Substance | decrease of binding capacity of treated uninfected RBC, TM 284 (TM 284 rosettes) | change in rosetting after treatment of whole cultures, FCR3S1 (FCR3S1 rosetting) | change in rosetting after treatment of whole cultures, TM 284 (TM 284 rosetting) | binding capacity of treated uninfected RBC, FCR3S1 (FCR3S1 rosettes) | effect of heparinase treatment on rosettes, TM284 (TM 284 rosetting; not shown) | effect of heparinase treatment on rosettes, TM180 (TM180 rosettes) | effect of heparinase treatment on rosettes, R29 (R29 rosettes) | decrease of rosette binding capacity of treated uninfected RBC [1] | effect of enzyme treatment of the uninfected erythrocyte on rosette binding [2] |
| --- | --- | --- | --- | --- | --- | --- | --- | --- | --- |
| Chondroitinase ABC | two fold decrease | had only effect on the rosetting of the TM284 strain | had only effect on the rosetting of the TM284 strain | unaffected | – | – | – | – | – |
| Heparinase III | – | drastic reduction of the rosetting capacity | somewhat lower decrease | – | disrupted the rosettes | disrupted the rosettes | not affected | 4–5 fold | treatment blocked the binding |
